Test results published in the kinase profiling compilation of Christmann-Franck et al. (2016).

Experiments:
Assay in all cases: radiometric filter-binding kinase assay
[1] = molecular target: PIM2 (human) (UniProt Q9P1W9)
[2] = molecular target: MAPKAPK2 (human) (UniProt P49137)
[3] = molecular target: CAMKK2 (human) (UniProt Q96RR4)
[4] = molecular target: MAPK15 (human) (UniProt Q8TD08)
[5] = molecular target: RPS6KA1 KD1 KD2 (human) (UniProt Q15418)
[6] = molecular target: NEK2 (human) (UniProt P51955)
Sequence of NEK2 (human) (P51955 whole entry, looked up): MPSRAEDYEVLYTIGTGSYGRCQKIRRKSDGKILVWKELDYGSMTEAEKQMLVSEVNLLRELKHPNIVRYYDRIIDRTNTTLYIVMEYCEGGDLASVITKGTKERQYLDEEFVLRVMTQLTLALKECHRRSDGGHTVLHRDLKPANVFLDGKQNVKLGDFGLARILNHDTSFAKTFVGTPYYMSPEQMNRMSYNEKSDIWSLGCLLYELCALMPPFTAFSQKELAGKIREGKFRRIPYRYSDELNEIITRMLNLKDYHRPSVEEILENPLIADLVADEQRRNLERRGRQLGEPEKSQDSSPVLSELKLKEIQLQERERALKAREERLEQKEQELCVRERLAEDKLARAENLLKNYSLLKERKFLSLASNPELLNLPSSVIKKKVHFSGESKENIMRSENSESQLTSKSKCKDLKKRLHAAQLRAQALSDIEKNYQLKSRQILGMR

[7] = molecular target: MAPK9 (human) (UniProt P45984)
[8] = molecular target: AURKB (human) (UniProt Q96GD4)
Sequence of AURKB (human) (Q96GD4 whole entry, looked up): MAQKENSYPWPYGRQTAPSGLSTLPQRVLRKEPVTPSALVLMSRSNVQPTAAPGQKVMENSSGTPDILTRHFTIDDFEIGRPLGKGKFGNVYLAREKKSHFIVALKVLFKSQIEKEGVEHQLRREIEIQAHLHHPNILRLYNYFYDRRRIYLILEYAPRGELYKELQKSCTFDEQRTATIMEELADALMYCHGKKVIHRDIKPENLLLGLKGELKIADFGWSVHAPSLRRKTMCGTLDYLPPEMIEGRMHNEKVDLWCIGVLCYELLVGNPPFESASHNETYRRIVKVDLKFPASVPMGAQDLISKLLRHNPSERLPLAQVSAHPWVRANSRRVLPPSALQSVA

[9] = molecular target: PRKACA (human) (UniProt P17612)
[10] = tested on: PRKAA1 or PRKAA2 (rat); conditions: accession and sequence are those of the human protein
[11] = molecular target: MAP2K1 (human) (UniProt Q02750)
[12] = molecular target: CHEK1 (human) (UniProt O14757)
[13] = molecular target: PHKG1 (human) (UniProt Q16816)
Sequence of PHKG1 (human) (Q16816 whole entry, looked up): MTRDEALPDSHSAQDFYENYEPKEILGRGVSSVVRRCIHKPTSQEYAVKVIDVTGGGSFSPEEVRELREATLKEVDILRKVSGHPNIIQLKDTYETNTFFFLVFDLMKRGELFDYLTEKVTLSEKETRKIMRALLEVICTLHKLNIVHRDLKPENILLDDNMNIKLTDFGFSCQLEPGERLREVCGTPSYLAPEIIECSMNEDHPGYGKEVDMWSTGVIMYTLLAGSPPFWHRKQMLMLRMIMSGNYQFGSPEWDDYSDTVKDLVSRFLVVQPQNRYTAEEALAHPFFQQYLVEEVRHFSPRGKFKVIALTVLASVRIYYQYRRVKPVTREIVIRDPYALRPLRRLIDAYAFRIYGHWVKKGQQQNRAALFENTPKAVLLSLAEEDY

[14] = molecular target: MAPK3 (human) (UniProt P27361)
[15] = molecular target: STK3 (human) (UniProt Q13188)
Sequence of STK3 (human) (Q13188 whole entry, looked up): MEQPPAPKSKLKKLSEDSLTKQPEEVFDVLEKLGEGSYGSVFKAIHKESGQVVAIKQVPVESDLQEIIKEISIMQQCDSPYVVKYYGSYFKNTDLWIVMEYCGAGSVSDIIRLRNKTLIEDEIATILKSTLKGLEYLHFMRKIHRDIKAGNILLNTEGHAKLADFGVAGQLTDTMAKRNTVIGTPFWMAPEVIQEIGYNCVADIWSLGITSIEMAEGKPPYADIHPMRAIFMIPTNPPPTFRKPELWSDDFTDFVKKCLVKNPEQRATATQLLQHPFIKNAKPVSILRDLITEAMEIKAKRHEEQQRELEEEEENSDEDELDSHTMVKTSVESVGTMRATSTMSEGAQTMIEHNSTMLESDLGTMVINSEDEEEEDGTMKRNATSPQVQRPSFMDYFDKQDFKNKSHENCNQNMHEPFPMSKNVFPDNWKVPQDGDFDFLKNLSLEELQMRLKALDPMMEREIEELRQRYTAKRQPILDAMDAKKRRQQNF

[16] = tested on: AKT2 (human), P31751 [S474D]
[17] = molecular target: PRKCA (human) (UniProt P17252)
[18] = molecular target: YES1 (human) (UniProt P07947)
Sequence of YES1 (human) (P07947 whole entry, looked up): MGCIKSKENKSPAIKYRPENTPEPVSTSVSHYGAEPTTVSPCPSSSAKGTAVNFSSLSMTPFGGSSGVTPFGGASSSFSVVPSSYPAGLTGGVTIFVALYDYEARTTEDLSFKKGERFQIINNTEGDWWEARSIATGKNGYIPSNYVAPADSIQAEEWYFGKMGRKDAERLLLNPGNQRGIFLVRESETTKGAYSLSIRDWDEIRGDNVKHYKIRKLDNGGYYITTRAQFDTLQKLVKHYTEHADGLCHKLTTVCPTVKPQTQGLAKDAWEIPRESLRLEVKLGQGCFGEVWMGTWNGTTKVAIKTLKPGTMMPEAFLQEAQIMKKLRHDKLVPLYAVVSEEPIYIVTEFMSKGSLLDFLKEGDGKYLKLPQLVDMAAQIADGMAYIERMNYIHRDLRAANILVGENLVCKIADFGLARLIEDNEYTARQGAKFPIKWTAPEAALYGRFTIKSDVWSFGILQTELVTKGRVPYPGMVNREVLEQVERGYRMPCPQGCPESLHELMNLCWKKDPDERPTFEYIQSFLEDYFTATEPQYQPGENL

[19] = molecular target: MAPK1 (human) (UniProt P28482)
[20] = molecular target: MKNK1 (human) (UniProt Q9BUB5)
Sequence of MKNK1 (human) (Q9BUB5 whole entry, looked up): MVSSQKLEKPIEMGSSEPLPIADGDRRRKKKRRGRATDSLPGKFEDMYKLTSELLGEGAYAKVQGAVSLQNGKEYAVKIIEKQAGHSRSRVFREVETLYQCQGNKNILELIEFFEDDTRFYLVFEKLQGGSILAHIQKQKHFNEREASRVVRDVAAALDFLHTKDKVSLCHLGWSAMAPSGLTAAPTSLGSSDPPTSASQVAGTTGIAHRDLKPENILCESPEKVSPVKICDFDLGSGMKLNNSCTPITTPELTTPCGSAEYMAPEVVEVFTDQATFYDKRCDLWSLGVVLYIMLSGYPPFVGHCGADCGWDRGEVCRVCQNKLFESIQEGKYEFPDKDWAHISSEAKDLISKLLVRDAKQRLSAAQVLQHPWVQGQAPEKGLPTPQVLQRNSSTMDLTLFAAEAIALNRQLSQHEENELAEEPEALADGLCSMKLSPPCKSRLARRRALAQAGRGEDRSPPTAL

[21] = molecular target: IGF1R (human) (UniProt P08069)
Sequence of IGF1R (human) (P08069 whole entry, looked up): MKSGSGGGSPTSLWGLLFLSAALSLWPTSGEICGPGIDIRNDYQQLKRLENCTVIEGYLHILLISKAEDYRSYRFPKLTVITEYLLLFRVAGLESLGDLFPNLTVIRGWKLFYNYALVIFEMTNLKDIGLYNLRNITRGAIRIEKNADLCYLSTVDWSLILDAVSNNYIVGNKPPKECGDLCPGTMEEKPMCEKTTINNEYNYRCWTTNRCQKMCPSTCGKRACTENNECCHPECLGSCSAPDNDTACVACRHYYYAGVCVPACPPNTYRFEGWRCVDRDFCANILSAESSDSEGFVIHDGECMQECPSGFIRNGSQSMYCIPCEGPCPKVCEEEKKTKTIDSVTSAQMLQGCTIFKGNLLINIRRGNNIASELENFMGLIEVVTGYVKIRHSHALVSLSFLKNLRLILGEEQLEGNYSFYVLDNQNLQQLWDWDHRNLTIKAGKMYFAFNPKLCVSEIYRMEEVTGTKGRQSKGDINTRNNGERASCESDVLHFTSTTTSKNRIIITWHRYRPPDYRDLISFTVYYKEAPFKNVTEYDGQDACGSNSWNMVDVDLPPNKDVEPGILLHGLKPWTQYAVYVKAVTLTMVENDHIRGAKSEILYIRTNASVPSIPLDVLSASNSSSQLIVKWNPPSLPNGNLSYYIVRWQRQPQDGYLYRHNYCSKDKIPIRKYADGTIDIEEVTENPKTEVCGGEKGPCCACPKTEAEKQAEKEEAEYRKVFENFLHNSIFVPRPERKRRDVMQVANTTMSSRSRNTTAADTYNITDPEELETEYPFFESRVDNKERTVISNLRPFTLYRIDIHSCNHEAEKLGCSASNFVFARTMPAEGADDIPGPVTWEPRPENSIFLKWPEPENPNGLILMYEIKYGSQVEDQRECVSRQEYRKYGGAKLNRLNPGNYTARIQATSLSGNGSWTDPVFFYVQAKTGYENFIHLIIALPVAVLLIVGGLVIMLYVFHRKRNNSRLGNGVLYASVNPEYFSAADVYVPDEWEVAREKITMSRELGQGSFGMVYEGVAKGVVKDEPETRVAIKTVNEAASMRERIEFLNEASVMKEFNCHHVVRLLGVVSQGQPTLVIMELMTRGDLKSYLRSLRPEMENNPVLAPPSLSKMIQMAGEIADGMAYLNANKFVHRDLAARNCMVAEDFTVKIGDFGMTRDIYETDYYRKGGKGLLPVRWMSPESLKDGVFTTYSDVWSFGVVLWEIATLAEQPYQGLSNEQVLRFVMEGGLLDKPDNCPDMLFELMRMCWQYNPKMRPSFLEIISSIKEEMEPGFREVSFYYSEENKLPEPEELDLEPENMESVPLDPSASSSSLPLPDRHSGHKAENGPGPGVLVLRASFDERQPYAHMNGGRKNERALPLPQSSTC

[22] = molecular target: CHEK2 (human) (UniProt O96017)
Sequence of CHEK2 (human) (O96017 whole entry, looked up): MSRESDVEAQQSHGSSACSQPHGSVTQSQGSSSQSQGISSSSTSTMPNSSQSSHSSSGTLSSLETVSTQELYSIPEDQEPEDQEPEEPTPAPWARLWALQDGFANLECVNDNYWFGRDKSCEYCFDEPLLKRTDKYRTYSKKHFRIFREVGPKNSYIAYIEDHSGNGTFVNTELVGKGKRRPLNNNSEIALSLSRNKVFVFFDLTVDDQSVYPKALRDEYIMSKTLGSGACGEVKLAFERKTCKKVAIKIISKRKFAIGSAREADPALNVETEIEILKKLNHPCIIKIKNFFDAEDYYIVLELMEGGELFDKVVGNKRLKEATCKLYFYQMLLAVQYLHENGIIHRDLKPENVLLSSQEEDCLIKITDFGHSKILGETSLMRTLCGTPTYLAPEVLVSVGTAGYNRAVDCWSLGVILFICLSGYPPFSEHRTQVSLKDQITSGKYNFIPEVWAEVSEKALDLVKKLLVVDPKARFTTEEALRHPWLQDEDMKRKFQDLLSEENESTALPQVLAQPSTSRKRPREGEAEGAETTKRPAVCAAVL

[23] = molecular target: SRC (human) (UniProt P12931)
[24] = molecular target: MKNK2 (human) (UniProt Q9HBH9)
[25] = molecular target: PKN2 (human) (UniProt Q16513)

Sequence of MAPKAPK2 (human) (P49137 whole entry, looked up): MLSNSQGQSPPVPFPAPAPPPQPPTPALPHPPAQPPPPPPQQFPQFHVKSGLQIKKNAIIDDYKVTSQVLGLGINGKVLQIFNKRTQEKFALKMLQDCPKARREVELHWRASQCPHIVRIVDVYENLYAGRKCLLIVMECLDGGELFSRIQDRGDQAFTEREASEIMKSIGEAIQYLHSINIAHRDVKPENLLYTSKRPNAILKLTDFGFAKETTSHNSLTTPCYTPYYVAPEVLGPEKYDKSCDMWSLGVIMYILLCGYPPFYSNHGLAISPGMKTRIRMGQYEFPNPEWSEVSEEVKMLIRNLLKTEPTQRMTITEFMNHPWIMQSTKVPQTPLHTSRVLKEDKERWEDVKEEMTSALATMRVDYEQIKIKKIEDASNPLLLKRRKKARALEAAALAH

## Cc1cc(SCc2sc(-c3ccc(C(F)(F)F)cc3)nc2C)ccc1OCC(=O)O
[1]; compound 1.0 µM
  residual activity: 99%
[1]; compound 10.0 µM
  residual activity: 106%
[2]; compound 1.0 µM
  residual activity: 97%
[2]; compound 10.0 µM
  residual activity: 84%
[3]; compound 1.0 µM
  residual activity: 86%
[3]; compound 10.0 µM
  residual activity: 83%
[4]; compound 1.0 µM
  residual activity: 103%
[4]; compound 10.0 µM
  residual activity: 109%
[5]; compound 1.0 µM
  residual activity: 106%
[5]; compound 10.0 µM
  residual activity: 113%
[6]; compound 1.0 µM
  residual activity: 94%
[6]; compound 10.0 µM
  residual activity: 153%
[7]; compound 10.0 µM
  residual activity: 79%
[8]; compound 1.0 µM
  residual activity: 110%
[8]; compound 10.0 µM
  residual activity: 100%
[9]; compound 1.0 µM
  residual activity: 110%
[9]; compound 10.0 µM
  residual activity: 86%
[10]; compound 1.0 µM
  residual activity: 94%
[10]; compound 10.0 µM
  residual activity: 91%
[11]; compound 1.0 µM
  residual activity: 105%
[11]; compound 10.0 µM
  residual activity: 90%
[12]; compound 1.0 µM
  residual activity: 102%
[12]; compound 10.0 µM
  residual activity: 120%
[13]; compound 1.0 µM
  residual activity: 109%
[13]; compound 10.0 µM
  residual activity: 96%
[14]; compound 1.0 µM
  residual activity: 115%
[15]; compound 1.0 µM
  residual activity: 97%
[15]; compound 10.0 µM
  residual activity: 122%
[16]; compound 1.0 µM
  residual activity: 103%
[16]; compound 10.0 µM
  residual activity: 103%
[17]; compound 1.0 µM
  residual activity: 96%
[17]; compound 10.0 µM
  residual activity: 88%
[18]; compound 1.0 µM
  residual activity: 98%
[18]; compound 10.0 µM
  residual activity: 102%
[19]; compound 1.0 µM
  residual activity: 100%
[19]; compound 10.0 µM
  residual activity: 102%
[20]; compound 1.0 µM
  residual activity: 89%
[20]; compound 10.0 µM
  residual activity: 79%
[21]; compound 1.0 µM
  residual activity: 87%
[22]; compound 1.0 µM
  residual activity: 81%
[22]; compound 10.0 µM
  residual activity: 101%
[23]; compound 1.0 µM
  residual activity: 87%
[23]; compound 10.0 µM
  residual activity: 70%
[24]; compound 1.0 µM
  residual activity: 99%
[24]; compound 10.0 µM
  residual activity: 83%
[25]; compound 1.0 µM
  residual activity: 102%
[25]; compound 10.0 µM
  residual activity: 92%

## O=C1Nc2nc(-c3c(O)cccc3OCC3CC3)cc(C3CCCNC3)c2CO1 (stereo not drawn)
[1]; compound 10.0 µM
  residual activity: 40%
[3]; compound 1.0 µM
  residual activity: 94%
[3]; compound 10.0 µM
  residual activity: 78%
[4]; compound 1.0 µM
  residual activity: 53%
[4]; compound 10.0 µM
  residual activity: 10%
[5]; compound 1.0 µM
  residual activity: 83%
[5]; compound 10.0 µM
  residual activity: 46%
[6]; compound 1.0 µM
  residual activity: 83%
[6]; compound 10.0 µM
  residual activity: 81%
[7]; compound 1.0 µM
  residual activity: 90%
[7]; compound 10.0 µM
  residual activity: 93%
[9]; compound 1.0 µM
  residual activity: 79%
[9]; compound 10.0 µM
  residual activity: 65%
[10]; compound 1.0 µM
  residual activity: 87%
[10]; compound 10.0 µM
  residual activity: 54%
[11]; compound 1.0 µM
  residual activity: 79%
[11]; compound 10.0 µM
  residual activity: 62%
[12]; compound 1.0 µM
  residual activity: 102%
[12]; compound 10.0 µM
  residual activity: 88%
[13]; compound 1.0 µM
  residual activity: 70%
[13]; compound 10.0 µM
  residual activity: 21%
[14]; compound 10.0 µM
  residual activity: 86%
[15]; compound 1.0 µM
  residual activity: 84%
[15]; compound 10.0 µM
  residual activity: 67%
[16]; compound 1.0 µM
  residual activity: 88%
[16]; compound 10.0 µM
  residual activity: 61%
[17]; compound 1.0 µM
  residual activity: 77%
[17]; compound 10.0 µM
  residual activity: 31%
[18]; compound 1.0 µM
  residual activity: 94%
[18]; compound 10.0 µM
  residual activity: 49%
[19]; compound 1.0 µM
  residual activity: 81%
[19]; compound 10.0 µM
  residual activity: 74%
[20]; compound 1.0 µM
  residual activity: 97%
[20]; compound 10.0 µM
  residual activity: 74%
[21]; compound 1.0 µM
  residual activity: 80%
[22]; compound 1.0 µM
  residual activity: 77%
[22]; compound 10.0 µM
  residual activity: 46%
[23]; compound 1.0 µM
  residual activity: 91%
[23]; compound 10.0 µM
  residual activity: 83%
[24]; compound 1.0 µM
  residual activity: 98%
[24]; compound 10.0 µM
  residual activity: 87%
[25]; compound 1.0 µM
  residual activity: 69%
[25]; compound 10.0 µM
  residual activity: 36%

## O=C1NC(=S)N[C@@H]1Cc1c[nH]c2ccccc12
[1]; compound 1.0 µM
  residual activity: 97%
[1]; compound 10.0 µM
  residual activity: 86%
[2]; compound 1.0 µM
  residual activity: 72%
[2]; compound 10.0 µM
  residual activity: 96%
[3]; compound 1.0 µM
  residual activity: 79%
[3]; compound 10.0 µM
  residual activity: 95%
[4]; compound 1.0 µM
  residual activity: 104%
[4]; compound 10.0 µM
  residual activity: 94%
[5]; compound 1.0 µM
  residual activity: 80%
[5]; compound 10.0 µM
  residual activity: 91%
[6]; compound 1.0 µM
  residual activity: 87%
[6]; compound 10.0 µM
  residual activity: 92%
[7]; compound 1.0 µM
  residual activity: 91%
[7]; compound 10.0 µM
  residual activity: 95%
[8]; compound 1.0 µM
  residual activity: 100%
[8]; compound 10.0 µM
  residual activity: 106%
[9]; compound 1.0 µM
  residual activity: 80%
[9]; compound 10.0 µM
  residual activity: 95%
[10]; compound 1.0 µM
  residual activity: 102%
[10]; compound 10.0 µM
  residual activity: 95%
[11]; compound 1.0 µM
  residual activity: -2%
[11]; compound 10.0 µM
  residual activity: 2%
[12]; compound 10.0 µM
  residual activity: 81%
[13]; compound 1.0 µM
  residual activity: 95%
[13]; compound 10.0 µM
  residual activity: 96%
[14]; compound 1.0 µM
  residual activity: 107%
[14]; compound 10.0 µM
  residual activity: 82%
[15]; compound 1.0 µM
  residual activity: 99%
[15]; compound 10.0 µM
  residual activity: 102%
[16]; compound 1.0 µM
  residual activity: 83%
[16]; compound 10.0 µM
  residual activity: 97%
[17]; compound 1.0 µM
  residual activity: 97%
[17]; compound 10.0 µM
  residual activity: 104%
[18]; compound 1.0 µM
  residual activity: 85%
[18]; compound 10.0 µM
  residual activity: 96%
[19]; compound 1.0 µM
  residual activity: 80%
[19]; compound 10.0 µM
  residual activity: 88%
[20]; compound 1.0 µM
  residual activity: 85%
[21]; compound 1.0 µM
  residual activity: 113%
[21]; compound 10.0 µM
  residual activity: 100%
[22]; compound 1.0 µM
  residual activity: 82%
[22]; compound 10.0 µM
  residual activity: 94%
[23]; compound 1.0 µM
  residual activity: 94%
[23]; compound 10.0 µM
  residual activity: 99%
[24]; compound 1.0 µM
  residual activity: 92%
[24]; compound 10.0 µM
  residual activity: 97%
[25]; compound 1.0 µM
  residual activity: 87%
[25]; compound 10.0 µM
  residual activity: 82%
